Drawing on patent US9695154B2, “Heteroaryl inhibitors of sumo activating enzyme” (MILLENNIUM PHARMACEUTICALS, INC., priority 2013, dated 2017), this text covers IC50 and inhibition for 19 molecules.

A value given as a limit tells only on which side of the number the result lay.

The assay deals with T1, recombinant human SAE enzyme (Homo sapiens, UniProt Q9UBT2).
T1 sequence (Q9UBT2 1-640): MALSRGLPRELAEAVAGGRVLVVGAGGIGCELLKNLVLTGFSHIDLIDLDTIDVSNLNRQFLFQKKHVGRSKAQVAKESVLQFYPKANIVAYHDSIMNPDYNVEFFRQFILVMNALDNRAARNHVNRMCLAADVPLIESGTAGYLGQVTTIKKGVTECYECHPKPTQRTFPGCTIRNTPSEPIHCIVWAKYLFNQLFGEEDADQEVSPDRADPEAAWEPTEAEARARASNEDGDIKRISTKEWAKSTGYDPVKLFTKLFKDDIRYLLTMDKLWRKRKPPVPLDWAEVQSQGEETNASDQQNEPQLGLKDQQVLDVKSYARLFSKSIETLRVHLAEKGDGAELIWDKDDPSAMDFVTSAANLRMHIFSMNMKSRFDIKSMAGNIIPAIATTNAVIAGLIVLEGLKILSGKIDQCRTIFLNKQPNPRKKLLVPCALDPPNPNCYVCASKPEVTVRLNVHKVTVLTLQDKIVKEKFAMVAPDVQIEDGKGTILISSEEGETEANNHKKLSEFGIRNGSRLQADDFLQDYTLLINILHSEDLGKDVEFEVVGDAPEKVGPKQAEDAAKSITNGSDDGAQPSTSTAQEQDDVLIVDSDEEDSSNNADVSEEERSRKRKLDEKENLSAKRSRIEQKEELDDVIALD
T1 sequence (Q9UBE0 1-346 partner): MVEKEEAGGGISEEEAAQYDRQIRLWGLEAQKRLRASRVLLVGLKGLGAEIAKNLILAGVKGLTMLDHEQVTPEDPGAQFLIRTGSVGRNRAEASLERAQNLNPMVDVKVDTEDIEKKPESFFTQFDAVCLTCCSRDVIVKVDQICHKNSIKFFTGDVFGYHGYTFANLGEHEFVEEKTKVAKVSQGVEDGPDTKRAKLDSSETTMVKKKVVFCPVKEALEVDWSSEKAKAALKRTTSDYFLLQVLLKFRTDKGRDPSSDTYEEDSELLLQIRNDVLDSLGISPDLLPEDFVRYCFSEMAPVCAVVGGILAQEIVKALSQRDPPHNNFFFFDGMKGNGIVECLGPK
Briefly: SAE HTRF Enzyme Assay. The format is biochemical. As to conditions: for IC50: class symbols A-C; for inhibition at 0.111 µM: compound concentration 0.111 μM, read-out: Percent Inhibition. In outline:
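SAE 0.11 nM; ATP 0.5 μM; Sumo-Flag 0.125 μM; Ubc9-GST 0.01 μM; 250 μM GSH, 5 mM MgCl2, pH 7.5. 105 min, 24° C. EDTA/KF stop plus Eu/APC antibodies, 2 h, TR-FRET. % inhibition or IC50.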

As usually defined, the IC50 is the concentration needed to halve the response being measured. Broadly, the inhibition is the relative decrease from the control value, in per cent. Regarding `NS(=O)(=O)OC[C@H]1C[C@@H](Nc2ncncc2C(=O)c2ccn(CC#CC3CC3)n2)C[C@@H]1O` [Compound I-287, {(1R,2S,4R)-4-[(5-{[1-(3-cyclopropylprop-2-yn-1-yl)-1H-pyrazol-3-yl]carbonyl}pyrimidin-4-yl)amino]-2-hydroxycyclopentyl}methyl sulfamate], the IC50 is below 10 nM and the inhibition at 0.111 µM turned out to be 95%.
Regarding `NS(=O)(=O)OC[C@H]1C[C@@H](Nc2ncncc2C(=O)c2ccn(Cc3ccc(Cl)c(C(F)(F)F)c3)n2)C[C@@H]1O` [Compound I-288, [(1R,2S,4R)-4-{[5-({1-[4-chloro-3-(trifluoromethyl)benzyl]-1H-pyrazol-3-yl}carbonyl)pyrimidin-4-yl]amino}-2-hydroxycyclopentyl]methyl sulfamate], the IC50 is below 10 nM and the inhibition at 0.111 µM worked out at 97%.
For `NS(=O)(=O)OC[C@H]1C[C@@H](Nc2ncncc2C(=O)c2ccn(Cc3cc(Cl)ccc3Cl)n2)C[C@@H]1O` [Compound I-289, {(1R,2S,4R)-4-[(5-{[1-(2,5-dichlorobenzyl)-1H-pyrazol-3-yl]carbonyl}pyrimidin-4-yl)amino]-2-hydroxycyclopentyl}methyl sulfamate], the IC50 was below 10 nM and the inhibition at 0.111 µM was 98%.
Taken in the same sequence, the figures for `NS(=O)(=O)OC[C@H]1C[C@@H](Nc2ncncc2C(=O)c2ccn(Cc3ccc(F)c(Br)c3)n2)[C@H](O)[C@@H]1O` [Compound I-290, {(1R,2R,3S,4R)-4-[(5-{[1-(3-bromo-4-fluorobenzyl)-1H-pyrazol-3-yl]carbonyl}pyrimidin-4-yl)amino]-2,3-dihydroxycyclopentyl}methyl sulfamate] were below 10 nM and 99%.
In the case of `C=CCn1ccc(C(=O)c2cncnc2N[C@@H]2C[C@H](COS(N)(=O)=O)[C@@H](O)C2)c1` [Compound I-291, [(1R,2S,4R)-4-({5-[(1-allyl-1H-pyrrol-3-yl)carbonyl]pyrimidin-4-yl}amino)-2-hydroxycyclopentyl]methyl sulfamate], the IC50 fell in the range of 10 to 100 nM and the inhibition at 0.111 µM turned out to be 79%.
For `NS(=O)(=O)OC[C@H]1C[C@@H](Nc2ncncc2C(=O)c2ccn(Cc3cccc(I)c3)n2)C[C@@H]1O` [Compound I-292, {(1R,2S,4R)-2-Hydroxy-4-[(5-{[1-(3-iodobenzyl)-1H-pyrazol-3-yl]carbonyl}pyrimidin-4-yl)amino]cyclopentyl}methyl sulfamate] the same measures were below 10 nM and 98%.
For `Cc1cc(C(=O)c2cncnc2N[C@@H]2C[C@H](COS(N)(=O)=O)[C@@H](O)[C@@H]2F)nn1Cc1cccc(I)c1` [Compound I-294, {(1R,2R,3R,4R)-3-fluoro-2-hydroxy-4-[(5-{[1-(3-iodobenzyl)-5-methyl-1H-pyrazol-3-yl]carbonyl}pyrimidin-4-yl)amino]cyclopentyl}methyl sulfamate] the same measures were below 10 nM and 100%.
For `COc1cccc(Cn2ccc(C(=O)c3cncnc3N[C@@H]3C[C@H](COS(N)(=O)=O)[C@@H](O)C3)n2)n1` [Compound I-295, [(1R,2S,4R)-2-hydroxy-4-{[5-({1-[(6-methoxypyridin-2-yl)methyl]-1H-pyrazol-3-yl}carbonyl)pyrimidin-4-yl]amino}cyclopentyl]methyl sulfamate] the same measures were below 10 nM and 96%.
For the molecule `NS(=O)(=O)OC[C@H]1C[C@@H](Nc2ncncc2C(=O)c2ccn(Cc3ccc(Cl)o3)c2)[C@@H](F)[C@@H]1O` [Compound I-296, [(1R,2R,3R,4R)-4-{[5-({1-[(5-chloro-2-furyl)methyl]-1H-pyrrol-3-yl}carbonyl)pyrimidin-4-yl]amino}-3-fluoro-2-hydroxycyclopentyl]methyl sulfamate], the IC50 is below 10 nM and the inhibition at 0.111 µM turned out to be 100%.
Taken in the same sequence, the figures for `Cc1cc(Cn2ccc(C(=O)c3cncnc3N[C@@H]3C[C@H](COS(N)(=O)=O)[C@@H](O)[C@@H]3F)c2)no1` [Compound I-297, [(1R,2R,3R,4R)-3-fluoro-2-hydroxy-4-{[5-({1-[(5-methylisoxazol-3-yl)methyl]-1H-pyrrol-3-yl}carbonyl)pyrimidin-4-yl]amino}cyclopentyl]methyl sulfamate] were below 10 nM and 97%.
With `Cc1cccc(Cn2ccc(C(=O)c3cncnc3N[C@@H]3C[C@H](COS(N)(=O)=O)[C@@H](O)C3)n2)n1` [Compound I-298, [(1R,2S,4R)-2-hydroxy-4-{[5-({1-[(6-methylpyridin-2-yl)methyl]-1H-pyrazol-3-yl}carbonyl)pyrimidin-4-yl]amino}cyclopentyl]methyl sulfamate], the IC50 is below 10 nM and the inhibition at 0.111 µM was 97%.
Taken in the same sequence, the figures for `NS(=O)(=O)OC[C@H]1C[C@@H](Nc2ncncc2C(=O)c2ccn(Cc3cncc(Br)c3)c2)C[C@@H]1O` [Compound I-299, [(1R,2S,4R)-4-{[5-({1-[(5-Bromopyridin-3-yl)methyl]-1H-pyrrol-3-yl}carbonyl)pyrimidin-4-yl]amino}-2-hydroxycyclopentyl]methyl sulfamate] were below 10 nM and 99%.
Taken in the same sequence, the figures for `NS(=O)(=O)OC[C@H]1C[C@@H](Nc2ncncc2C(=O)c2ccn(Cc3ccccc3)c2)C[C@@H]1O` [Compound I-300, [(1R,2S,4R)-4-({5-[(1-Benzyl-1H-pyrrol-3-yl)carbonyl]pyrimidin-4-yl}amino)-2-hydroxycyclopentyl]methyl sulfamate] were below 10 nM and 97%.
For `NS(=O)(=O)OC[C@H]1C[C@@H](Nc2ncncc2C(=O)c2ccn(Cc3ccc(F)c(C4CC4)c3)n2)C[C@@H]1O` [Compound I-301, {(1R,2S,4R)-4-[(5-{[1-(3-cyclopropyl-4-fluorobenzyl)-1H-pyrazol-3-yl]carbonyl}pyrimidin-4-yl)amino]-2-hydroxycyclopentyl}methyl sulfamate] the same measures were below 10 nM and 97%.
As for `NS(=O)(=O)OC[C@H]1C[C@@H](Nc2ncncc2C(=O)c2ccn(Cc3cccc(OC(F)F)c3)n2)[C@@H](F)[C@@H]1O` [Compound I-303, [(1R,2R,3R,4R)-4-{[5-({1-[3-(difluoromethoxy)benzyl]-1H-pyrazol-3-yl}carbonyl)pyrimidin-4-yl]amino}-3-fluoro-2-hydroxycyclopentyl]methyl sulfamate], the IC50 was below 10 nM and the inhibition at 0.111 µM turned out to be 99%.
Taken in the same sequence, the figures for `COCCn1ccc(C(=O)c2cncnc2N[C@@H]2C[C@H](COS(N)(=O)=O)[C@@H](O)C2)n1` [Compound I-305, {(1R,2S,4R)-2-hydroxy-4-[(5-{[1-(2-methoxyethyl)-1H-pyrazol-3-yl]carbonyl}pyrimidin-4-yl)amino]cyclopentyl}methyl sulfamate] were 100 to 1000 nM and 32%.
On to `Cn1nc(Cn2ccc(C(=O)c3cncnc3N[C@@H]3C[C@H](COS(N)(=O)=O)[C@@H](O)C3)c2)cc1C(F)(F)F` [Compound I-306, [(1R,2S,4R)-2-hydroxy-4-({5-[(1-{[1-methyl-5-(trifluoromethyl)-1H-pyrazol-3-yl]methyl) 1H pyrrol-3-yl)carbonyl]pyrmidin-4-yl}amino)cyclopentyl]methyl sulfamate], for which the IC50 is below 10 nM and the inhibition at 0.111 µM was 99%.
Taken in the same sequence, the figures for `NS(=O)(=O)OC[C@H]1C[C@@H](Nc2ncncc2C(=O)c2ccn(Cc3cc(Cl)ccc3Cl)n2)[C@@H](F)[C@@H]1O` [Compound I-307, {(1R,2R,3R,4R)-4-[(5-{[1-(2,5-dichlorobenzyl)-1H-pyrazol-3-yl]carbonyl}pyrimidin-4-yl)amino]-3-fluoro-2-hydroxycyclopentyl}methyl sulfamate] were below 10 nM and 98%.
For `Cn1cc(C#CCn2ccc(C(=O)c3cncnc3N[C@@H]3C[C@H](COS(N)(=O)=O)[C@@H](O)C3)n2)cn1` [Compound I-308, [(1R,2S,4R)-2-hydroxy-4-{[5-({1-[3-(1-methyl-1H-pyrazol-4-yl)prop-2-yn-1-yl]-1H-pyrazol-3-yl}carbonyl)pyrimidin-4-yl]amino}cyclopentyl]methyl sulfamate] the same measures were 100 to 1000 nM and 27%.
